Data as given in patent US20070148154A1, “Use of superoxide dismutase mimetics and reductase gultatione in the form of anticancer drugs” (UNIVERSITE RENE DESCARTES (PARIS V), priority 2004, published 2007).

Columns and labels:
[1] = system: Hepa 1-6 (mouse liver hepatoma); assay: In vitro cell proliferation assay ([3H]-thymidine); type: cell-based; conditions: for decrease in tumor cell proliferation, antitumor agent alone: no antioxidant
Method: (§4) In vitro cell proliferation assays were carried out on the following cell lines: CT26 (mouse colon carcinoma, ATCC (American Type Culture Collection) No. 2638), Hepa 1-6 (mouse liver hepatoma, ATCC No. 1830), A549 (human lung carcinoma, ATCC No. 185).
(§5) The cell proliferation is determined by incubating the cells for 16 hours with [^3H]-thymidine (1 μCi/well).

Hepa 1-6 tumor cells = assay: In vitro viability test (MTT); type: cell-based, mouse; conditions: for viability reduced by: 400 μM, 48 h
Method: (§6) In vitro viability tests, in response to the treatment with NAC, CuDIPS, MnTBAP or MnDPDP, were carried out on the cell lines of Example 1 and on normal human leukocytes. The latter were obtained from normal volunteers, after informed consent, by taking venous blood samples collected on an anticoagulant (lithium-heparinate). The red blood cells were lysed by osmotic shock using a hypotonic solution of potassium acetate and the leukocytes were cultured under the conditions described in Example 1.
(§7) For the viability test, the cells (2×10^4 cells/well) were seeded into 96-well plates (COSTAR, Corning Inc. NY, USA) and incubated for 48 hours in complete medium supplemented with increasing concentrations, from 0 to 400 μm, of NAC, of MnTBAP, of CuDIPS or of MnDPDP. The cell viability was evaluated by reduction of a methylthiazoletetrazolium salt (MTT; SIGMA) into formazan. The cells were exposed to 20 μl of MTT (5 mg/ml in PBS) and incubated for 4 h at 37° C. 150 μl of medium were then removed from each well and the reaction was visualized by the addition of 100 μl of DMSO (SIGMA). The absorbance was analyzed for each well at 550 nm and at 630 nm with an ELISA plate reader. The number of viable cells was determined by the difference between the absorbance at 550 nm and the absorbance at 630 nm.
(§8) The viability tests were carried out on the CT26, Hepa 16 and A549 tumor lines, and on normal human leukocytes, according to the protocol described in Example 2.

A549 tumor cells = assay: In vitro viability test (MTT); type: cell-based, human; conditions: for viability reduced by: 400 μM, 48 h
Method: as §6, §7, §8

CT26 tumor cells = assay: In vitro viability test (MTT); type: cell-based, mouse; conditions: for viability reduced by: 400 μM, 48 h
Method: as §6, §7, §8

[2] = system: A549 (human lung carcinoma); assay: In vitro cell proliferation assay ([3H]-thymidine); type: cell-based; conditions: for decrease in tumor cell proliferation, antitumor agent alone: no antioxidant
Method: as §4, §5

[3] = system: CT26 (mouse colon carcinoma); assay: In vitro cell proliferation assay ([3H]-thymidine); type: cell-based; conditions: for decrease in tumor cell proliferation, antitumor agent alone: no antioxidant
Method: as §4, §5

normal human leukocytes = assay: In vitro viability test (MTT); conditions: for decrease in viability of normal leukocytes, antitumor agent alone: no antioxidant; for decrease in cell viability, maximum / effect on viability of normal human leukocytes: 0 to 400 μM, 48 h; for effect on the cytotoxic effect of taxol on normal leukocytes: with 20 μM taxol; for effect on the cytotoxic effect of taxol on normal leukocytes / effect on the cytotoxic effect of oxaliplatin on normal leukocytes / effect on the cytotoxic effect of 5-FU on normal leukocytes: increasing concentrations of antioxidant; for effect on the cytotoxic effect of oxaliplatin on normal leukocytes: with 1 mM oxaliplatin; for effect on the cytotoxic effect of 5-FU on normal leukocytes: with 40 mM 5-FU
Method: as §6, §7, §8

[4] = system: Hepa 1-6 cells in C57BL/6 mice; assay: In vivo antitumor activity, subcutaneous Hepa 1-6 tumors; set-up: species or system mouse; conditions: for decrease in tumor volume at one month compared with the nontreated animals: no oxaliplatin; for effect on the inhibitory (antitumor) effect of oxaliplatin on tumor growth: mice treated with oxaliplatin 20 mg/kg, NAC 150 mg/kg, SOD mimetics 10 mg/kg i.p.
Method: (§1) The in vivo antitumor activity of various antioxidant treatments was estimated. For these experiments, female six- to eight-week-old BALB/c (for the injection of CT-26 tumor cells) or C57/BL6 (for the injection of Hepa 1-6 tumor cells) mice were used (IFFA CREDO, L'Arbresles, France). Two million tumor cells were injected into the back of the animals subcutaneously. When the size of the tumor reached 200 to 500 mm^3, the animals were given a single injection of 20 mg/kg of oxaliplatin (ELOXATIN®) or of a saline solution.
(§2) The mice were then treated intraperitoneally, two hours after the injection of oxaliplatin or of saline solution, with 10 mg/kg of mangafodipir, of MnTBAP or of CuDIPS, or with 150 mg/kg of NAC, or with a saline solution. The injection of the various antioxidants was continued for one month (three injections per week at the same doses). A group of mice inoculated with tumor cells was not treated.
(§3) The size of the tumors was measured every three days. The tumor volume was calculated as follows: VT (mm^3)=(L×W^2)/2, where L is the longest dimension and W the shortest dimension of the tumor in mm. Fifteen mice were included in each group.

[5] = system: CT26 carcinoma tumor cells in BALB/c mice; assay: In vivo antitumor activity, subcutaneous CT26 tumors; set-up: species or system mouse; conditions: for decrease in tumor volume at one month compared with the nontreated animals / decrease in tumor volume at one month compared with animals treated only with oxaliplatin: 10 mg/kg i.p.; for decrease in tumor volume at one month compared with the nontreated animals: no oxaliplatin; for decrease in tumor volume at one month compared with animals treated only with oxaliplatin: plus oxaliplatin 20 mg/kg
Method: as §1, §2, §3

[6] = system: Hepa 1-6, CT26 and A549 tumor cells; assay: In vitro viability test (MTT), result stated for the tumor lines together; conditions: for effect on the cytotoxic effect of oxaliplatin on tumor cells: with 10 μM oxaliplatin; for effect on the cytotoxic effect of oxaliplatin on tumor cells / effect on the cytotoxic activity of taxol on tumor cells / effect on the cytotoxic activity of 5-FU on tumor cells: increasing concentrations of antioxidant; for effect on the cytotoxic activity of taxol on tumor cells: with 10 μM taxol; for effect on the cytotoxic activity of 5-FU on tumor cells: with 50 μM 5-FU; for effect on tumor cell viability: 0 to 400 μM, 48 h
Method: In vitro viability tests, in response to the treatment with NAC, CuDIPS, MnTBAP or MnDPDP, were carried out on the cell lines of Example 1 and on normal human leukocytes.
as §7
For each of these molecules, cell proliferation assays and cell viability tests were carried out, in the absence of antioxidant molecules, or in the presence of increasing concentrations of NAC, of MnTBAP, of CuDIPS or of MnDPDP.
as §8

[7] = system: Hepa 1-6, CT26 and A549 tumor cells; assay: In vitro cell proliferation assay ([3H]-thymidine), result stated for the tumor lines together; conditions: for reduction in cell proliferation: 400 μM, 48 h incubation; for effect on the cytostatic (antiproliferative) effect of oxaliplatin: with 10 μM oxaliplatin; for effect on the cytostatic (antiproliferative) effect of oxaliplatin / effect on the cytostatic effect of taxol / effect on the cytostatic effect of 5-FU: increasing concentrations of antioxidant; for effect on the cytostatic effect of taxol: with 10 μM taxol; for effect on the cytostatic effect of 5-FU: with 50 μM 5-FU
Method: as §4, §5
The following antitumor molecules: oxaliplatin (belonging to the cisplatin family); taxol; 5-fluorouracil; which are known to induce ROS production in tumor cells, were used. For each of these molecules, cell proliferation assays and cell viability tests were carried out, in the absence of antioxidant molecules, or in the presence of increasing concentrations of NAC, of MnTBAP, of CuDIPS or of MnDPDP.

plasmid pcDNA3.1 = assay: Plasmid DNA alteration (agarose gel electrophoresis, densitometry)
Method: The purified plasmid pcDNA3.1 (INVITROGEN) was used to analyze the potential DNA alterations in response to the addition of molecules used in cancer chemotherapy in the presence, or in the absence, of antioxidant enzyme modulators. This DNA was then stored at −20° C. in 10 mM TRIS, 1 mM EDTA until its use.
The plasmid DNA was incubated with oxaliplatin at a molar ratio of 0.50 in a final volume of 50 μl. MnTBAP (5 μM), CuDIPS (5 μM), mangafodipir (5 μM) or NAC (5 mM) were then added to the solution. The production of superoxide anion was realized by the addition of 200 μM xanthine (SIGMA) and 1 U of xanthine oxidase (SIGMA). The incubation was carried out in the dark at 37° C. for 24 h. At the end of the incubation period, 10 μl aliquots were subjected to 0.8% agarose gel electrophoresis and detected by ethidium bromide staining. The gels were then analyzed by densitometry (VILBER LOURMAT, Marnes-la-Vallée, France).

[8] = 10 mg/kg i.p., three injections per week

Molecule	decrease in tumor volume at one month compared with the nontreated animals [4, 8]	effect on the inhibitory (antitumor) effect of oxaliplatin on tumor growth [4]	viability reduced by (Hepa 1-6 tumor cells)	decrease in tumor volume at one month compared with the nontreated animals ([5]; three injections per week)	decrease in tumor volume at one month compared with animals treated only with oxaliplatin ([5]; three injections per week)	effect on the cytotoxic effect of oxaliplatin on tumor cells [6]	effect on the cytotoxic activity of taxol on tumor cells [6]	effect on the cytotoxic activity of 5-FU on tumor cells [6]	reduction in cell proliferation [7]	effect on the cytostatic (antiproliferative) effect of oxaliplatin [7]	effect on the cytostatic effect of taxol [7]	effect on the cytostatic effect of 5-FU [7]	viability reduced by (A549 tumor cells)	viability reduced by (CT26 tumor cells)	decrease in cell viability, maximum (normal human leukocytes)	effect on the cytotoxic effect of taxol on normal leukocytes (normal human leukocytes)	effect on the cytotoxic effect of oxaliplatin on normal leukocytes (normal human leukocytes)	effect on the cytotoxic effect of 5-FU on normal leukocytes (normal human leukocytes)	effect on tumor cell viability [6]	effect on viability of normal human leukocytes (normal human leukocytes)	other results
O=c1[nH]cc(F)c(=O)[nH]1 [5-FU, 5-fluoro-1,2,3,4-tetrahydropyrimidine-2,5-dione]	–	–	–	–	–	–	–	–	–	–	–	–	–	–	–	–	–	–	–	–	decrease in tumor cell proliferation, antitumor agent alone ([1]; 50 μM): 91%; cytotoxicity at 50 µM (Hepa 1-6 tumor cells; Mus musculus, Hepa1-6, 50 μM, no antioxidant, read-out: decrease in cell viability, antitumor agent alone, on average): 65%; cytotoxicity at 50 µM (A549 tumor cells; Homo sapiens, A549, 50 μM, no antioxidant, read-out: decrease in cell viability, antitumor agent alone, on average): 25%; cytotoxicity at 50 µM (CT26 tumor cells; Mus musculus, CT26, 50 μM, no antioxidant, read-out: decrease in cell viability, antitumor agent alone, on average): 85%; decrease in tumor cell proliferation, antitumor agent alone ([2]; 50 μM): 85%; decrease in tumor cell proliferation, antitumor agent alone ([3]; 50 μM): 91%; decrease in viability of normal leukocytes, antitumor agent alone (normal human leukocytes; 40 mM): approximately 19%
CC(C)c1cc(C(=O)[O-])c(O)c(C(C)C)c1.CC(C)c1cc(C(=O)[O-])c(O)c(C(C)C)c1.[Cu+2] [CuDIPS, Cu[II]-[diisopropylsalicylate]]	9%	does not significantly increase	74%	28%	31%	increase	increases	increases	~90%	increase	increases	increase	50%	85%	50%	increases	increase	increases	–	–	–
O=C(O)c1ccc(-c2c3nc(c(-c4ccc(C(=O)O)cc4)c4ccc([n-]4)c(-c4ccc(C(=O)O)cc4)c4nc(c(-c5ccc(C(=O)O)cc5)c5ccc2[n-]5)C=C4)C=C3)cc1.[Mn+3] [MnTBAP, Mn(III) tetrakis(5,10,15,20-benzoic acid)-porphyrin]	42%	does not significantly increase	62%	59%	35%	increase	increases	increases	~90%	increase	increases	increase	37%	75%	18%	virtually no influence	increase	only a very weak influence	–	–	–
CC(=O)N[C@@H](CS)C(=O)O [NAC, N-acetylcystein]	–	completely blocks	–	–	–	decreases	does not influence	does not modify	–	reduces	reduces	inhibits	–	–	–	decreases	decreases	decreases	no effect	no effect	increase in proliferation ([1]; 100 μM, 48 h incubation): 73%; effect on DNA impairments by mangafodipir, ROS and oxaliplatin (plasmid pcDNA3.1; NAC 5 mM): partially inhibit; effect on DNA impairment by superoxide anions (xanthine/xanthine oxidase) (plasmid pcDNA3.1; NAC 5 mM, X/XO): inhibited; effect on DNA damage by oxaliplatin coincubated with X/XO (plasmid pcDNA3.1; NAC 5 mM, X/XO and low doses of oxaliplatin): decreases the damage; increase in tumor volumes after one month compared with mice which are not given NAC ([4]; 150 mg/kg i.p., three injections per week): 50%; increase in tumor volumes after one month compared with mice which do not receive NAC ([5]; 150 mg/kg i.p., three injections per week, mice not treated with oxaliplatin): 44%; effect on the inhibitory effect of oxaliplatin on tumor growth ([5]; mice treated with oxaliplatin 20 mg/kg, NAC 150 mg/kg i.p.): completely blocks; increase in proliferation ([2]; 400 μM, 48 h incubation): 45%; increase in proliferation ([3]; 400 μM, 48 h incubation): 47%
CC(=O)O[C@H]1C(=O)[C@@]2(C)[C@H]([C@H](OC(=O)c3ccccc3)[C@]3(O)C[C@H](OC(=O)[C@H](O)[C@@H](NC(=O)c4ccccc4)c4ccccc4)C(C)=C1C3(C)C)[C@]1(OC(C)=O)CO[C@@H]1C[C@@H]2O [taxol]	–	–	–	–	–	–	–	–	–	–	–	–	–	–	–	–	–	–	–	–	decrease in tumor cell proliferation, antitumor agent alone ([1]; 10 μM): 65%; cytotoxicity at 10 µM (Hepa 1-6 tumor cells; Mus musculus, Hepa1-6, 10 μM, no antioxidant, read-out: decrease in cell viability, antitumor agent alone, on average): 25%; cytotoxicity at 10 µM (A549 tumor cells; Homo sapiens, A549, 10 μM, no antioxidant, read-out: decrease in cell viability, antitumor agent alone, on average): 47%; cytotoxicity at 10 µM (CT26 tumor cells; Mus musculus, CT26, 10 μM, no antioxidant, read-out: decrease in cell viability, antitumor agent alone, on average): 50%; decrease in tumor cell proliferation, antitumor agent alone ([2]; 10 μM): 85%; decrease in tumor cell proliferation, antitumor agent alone ([3]; 10 μM): 71%; decrease in viability of normal leukocytes, antitumor agent alone (normal human leukocytes; 20 μM): approximately 50%
manganese dipyridoxyl phosphate [MnDPDP]	34%	–	–	54%	63%	increase	increases	increases	~90%	increase	increases	increase	–	–	–	inhibits	inhibits	inhibits	reduces, in a dose-dependent manner	does not influence	effect on the structure of plasmid DNA (form I / II / III) (plasmid pcDNA3.1; 37° C., 24 h, SOD mimetics 5 μM, oxaliplatin maximum at DNA/oxaliplatin ratio 0.5): induces, per se, DNA damage; decrease in tumor volume at one month compared with animals treated only with oxaliplatin ([4]; 10 mg/kg i.p., three injections per week, plus oxaliplatin 20 mg/kg): 63%
